In PubChem BioAssay (NCI) one finds GI50 and TGI data, which are given here for 15 compounds.

Some test systems named below: SF-539 CNS; U251 CNS; NCI-H23 lung; A549 NSCLC; CAKI-1 renal; HCT-116 colon; SF-268 CNS; SK-MEL-5 melanoma; M14 melanoma; HOP-62 NSCLC.
Common to all, as to test: NCI tumour cell line growth inhibition, 48 h

Values joined by “and” are separate entries in the source; they are usually repeats but may differ in a detail not shown here. Equal values may be shown once.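 1) Cells in 96-well plates. 2) Compound, 48 h, 5 concentrations. 3) Linear interpolation between surrounding doses. 4) Unreached endpoint = highest concentration. GI50 marks 50% less growth. TGI marks complete inhibition of growth.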 Some results are limits rather than exact numbers.

Take `O=C(Nc1ccc(Br)cc1)c1cc(Br)ccc1O`: the GI50 in the assay with SF-539 CNS is 0.647 µM and 0.7 µM; in the assay on U251 CNS, 0.417 µM and 0.682 µM; in the assay on NCI-H23 lung it was 0.345 µM and 0.467 µM; in the assay with A549 NSCLC, 1.09 µM and 2.5 µM; in the assay with CAKI-1 renal, 0.333 µM and 1.21 µM; with HCT-116 colon, 0.354 µM and 1.45 µM. The GI50 with SF-268 CNS was 0.489 µM and 2.05 µM; with SK-MEL-5 melanoma it was 0.304 µM and 0.416 µM; in the assay on M14 melanoma, 1 µM and 2.13 µM; with HOP-62 NSCLC, 0.791 µM and 1.73 µM. In addition, the TGI in the assay with SF-539 CNS was 13 µM and 10.1 µM; with U251 CNS, greater than 100 µM; in the assay on NCI-H23 lung, 2.06 µM and 4.34 µM; with A549 NSCLC it was greater than 100 µM; with CAKI-1 renal, 2.49 µM and 5.62 µM; in the assay on HCT-116 colon it was 1.56 µM and 3.56 µM. The TGI was 26.6 µM and 13.4 µM with SF-268 CNS; 1.16 µM and 1.56 µM in the assay on SK-MEL-5 melanoma; 7.07 µM and 18.2 µM in the assay with M14 melanoma; 8.75 µM and 5.31 µM in the assay with HOP-62 NSCLC.
In the case of `COC(=O)C(C(=O)C(=O)Nc1nc2ccc(OC)cc2s1)c1cnc2ccccc2n1` (stereo not given), the TGI in the assay on SF-539 CNS, with U251 CNS, in the assay on NCI-H23 lung, with A549 NSCLC, in the assay on CAKI-1 renal and with HCT-116 colon was greater than 100 µM throughout. The TGI in the assay with SF-268 CNS, in the assay on SK-MEL-5 melanoma, in the assay on M14 melanoma and with HOP-62 NSCLC was greater than 100 µM in each case.
Consider `COc1cc(Br)c(/C=N/N=C(\N)NO)cc1OC`, for which the TGI is 58.7 µM with SF-539 CNS; greater than 100 µM in the assay with U251 CNS; 69 µM with NCI-H23 lung; 50.2 µM with A549 NSCLC; 79 µM in the assay on CAKI-1 renal; 43.8 µM in the assay with HCT-116 colon. The TGI in the assay with SF-268 CNS turned out to be 30.6 µM; in the assay with SK-MEL-5 melanoma, 21.2 µM; in the assay on M14 melanoma, 34.7 µM; in the assay on HOP-62 NSCLC, 70.3 µM.
On to `COc1cc(C(C)c2cc3c(cc2OCCCCCOc2cc4c(cc2C(C)c2cc(OC)c(OC)c(OC)c2)OCO4)OCO3)cc(OC)c1OC` (stereo not given), for which the TGI in the assay with SF-539 CNS, in the assay on U251 CNS, in the assay with NCI-H23 lung, in the assay with A549 NSCLC, in the assay with CAKI-1 renal and in the assay with HCT-116 colon was greater than 100 µM throughout. Moreover, the TGI in the assay with SF-268 CNS, in the assay with SK-MEL-5 melanoma, in the assay with M14 melanoma and in the assay with HOP-62 NSCLC was greater than 100 µM throughout.
For `CCOC(=O)c1ccc(N[C@@H]2c3cc4c(cc3C(c3cc(OC)c(O)c(OC)c3)[C@H]3C(=O)OCC32)OCO4)cc1` (stereo not given in full), the GI50 is 0.34 µM with SF-539 CNS; 0.203 µM in the assay with U251 CNS; 0.191 µM with NCI-H23 lung; 0.103 µM with A549 NSCLC; 0.109 µM in the assay with CAKI-1 renal; 0.835 µM in the assay with HCT-116 colon. In addition, the GI50 is 0.394 µM with SF-268 CNS; 0.379 µM in the assay on SK-MEL-5 melanoma; 0.353 µM with M14 melanoma; 0.212 µM and 0.129 µM with HOP-62 NSCLC. The TGI in the assay with SF-539 CNS was 0.951 µM and 1.97 µM; with U251 CNS, 3.27 µM; in the assay on NCI-H23 lung it was 0.768 µM and 2.24 µM; in the assay on A549 NSCLC, 2.76 µM; in the assay with CAKI-1 renal, 0.854 µM and 3.88 µM; with HCT-116 colon it was 10.5 µM. The TGI was 15.7 µM in the assay with SF-268 CNS; 2.95 µM in the assay with SK-MEL-5 melanoma; 4.32 µM in the assay on M14 melanoma; 0.709 µM and 0.79 µM in the assay on HOP-62 NSCLC.
Consider `CC(C)C[C@H](NC(=O)[C@@H](N)Cc1cccc2ccccc12)B(O)O`, for which the GI50 is 0.178 µM in the assay on SF-539 CNS; 0.392 µM in the assay on U251 CNS; 0.245 µM in the assay with NCI-H23 lung; 0.926 µM with A549 NSCLC; 0.225 µM in the assay on CAKI-1 renal; 0.138 µM in the assay on HCT-116 colon. The GI50 in the assay with SF-268 CNS was 0.246 µM and 0.0326 µM; in the assay on SK-MEL-5 melanoma, 0.176 µM; with M14 melanoma it was 0.206 µM and 0.0374 µM; with HOP-62 NSCLC, 0.831 µM.
For `CN(C)c1ccc(-c2nc(N)nc3c2CCCC3)cc1`, the TGI in the assay with SF-539 CNS, with U251 CNS, in the assay with NCI-H23 lung, in the assay with A549 NSCLC, in the assay on CAKI-1 renal and in the assay with HCT-116 colon was greater than 100 µM throughout. Further, the TGI in the assay on SF-268 CNS, in the assay with SK-MEL-5 melanoma, in the assay on M14 melanoma and in the assay on HOP-62 NSCLC was greater than 100 µM each time.
Regarding `CCOC(=O)CCC(NC(=O)c1ccc(Oc2nc3cc(N)cc(N)c3nc2-c2ccccc2)cc1)C(=O)OCC` (stereo not given), the GI50 was 34 µM with SF-539 CNS; greater than 100 µM in the assay on U251 CNS; 15.5 µM in the assay on NCI-H23 lung; greater than 100 µM in the assay with A549 NSCLC; 49.5 µM in the assay on CAKI-1 renal; 15.1 µM in the assay with HCT-116 colon. Besides, the GI50 in the assay on SF-268 CNS is 40.7 µM; in the assay on SK-MEL-5 melanoma, 18 µM; in the assay on M14 melanoma, 40 µM; with HOP-62 NSCLC, 36.6 µM. Besides, the TGI is greater than 100 µM in the assay with SF-539 CNS; greater than 100 µM with U251 CNS; 30.4 µM in the assay on NCI-H23 lung; greater than 100 µM with A549 NSCLC; greater than 100 µM in the assay on CAKI-1 renal; 28.7 µM in the assay on HCT-116 colon. Further, the TGI is greater than 100 µM in the assay with SF-268 CNS, 53.8 µM in the assay on SK-MEL-5 melanoma, greater than 100 µM in the assay with M14 melanoma and 87.1 µM in the assay with HOP-62 NSCLC.
For `Cc1nc2ccccc2c(/C=C/c2ccc(F)cc2)c1C(=O)/C=C/c1ccccc1`, the GI50 with SF-539 CNS was 1.81 µM; in the assay on U251 CNS it was 1.74 µM; in the assay with NCI-H23 lung, 1.99 µM; in the assay with A549 NSCLC, 2.88 µM; in the assay on CAKI-1 renal, 1.58 µM; in the assay with HCT-116 colon it was 1.25 µM. Also, the GI50 with SF-268 CNS is 3.45 µM; in the assay on SK-MEL-5 melanoma, 2.11 µM; in the assay with M14 melanoma, 2.87 µM; in the assay on HOP-62 NSCLC, 1.91 µM. The TGI was determined as 3.57 µM in the assay with SF-539 CNS; 3.18 µM in the assay on U251 CNS; 5.43 µM in the assay with NCI-H23 lung; 10.3 µM in the assay with A549 NSCLC; 3.83 µM in the assay with CAKI-1 renal; 3.66 µM with HCT-116 colon. Further, the TGI with SF-268 CNS was greater than 100 µM; with SK-MEL-5 melanoma, 5.12 µM; in the assay on M14 melanoma, 9.26 µM; in the assay with HOP-62 NSCLC, 4.27 µM.
As for `Cc1nsc2cc(Cl)n(C)c(=O)c12`, the TGI in the assay with SF-539 CNS, in the assay on U251 CNS, with NCI-H23 lung, with A549 NSCLC, in the assay on CAKI-1 renal and in the assay on HCT-116 colon was greater than 100 µM each time. Further, the TGI with SF-268 CNS, with SK-MEL-5 melanoma, in the assay with M14 melanoma and with HOP-62 NSCLC was greater than 100 µM in each case.
As for `Cc1ccc(S(=O)(=O)NC(=O)Nc2ncn[nH]2)cc1`, the TGI in the assay with SF-539 CNS, in the assay on U251 CNS, in the assay with NCI-H23 lung, with A549 NSCLC, in the assay with CAKI-1 renal and in the assay on HCT-116 colon was greater than 100 µM each time. Also, the TGI with SF-268 CNS, with SK-MEL-5 melanoma, in the assay on M14 melanoma and in the assay with HOP-62 NSCLC was greater than 100 µM in each case.
With `NNC(=S)N/N=C(\c1nc2ccc(Cl)cc2[nH]c1=O)C(O)c1cccc([N+](=O)[O-])c1` (stereo not given), the TGI with SF-539 CNS is greater than 47.5 µM; in the assay with U251 CNS it was greater than 100 µM; in the assay with NCI-H23 lung, greater than 61.9 µM; in the assay on A549 NSCLC it was greater than 100 µM; in the assay with CAKI-1 renal, greater than 100 µM; in the assay on HCT-116 colon it was greater than 31.6 µM. Besides, the TGI was greater than 79.5 µM in the assay on SF-268 CNS, greater than 100 µM in the assay on SK-MEL-5 melanoma, greater than 88 µM with M14 melanoma and greater than 55.8 µM with HOP-62 NSCLC.
As for `COc1cccc(C2=C(c3cn(C)c4c(C)cccc34)C(=O)NC2=O)c1`, the GI50 in the assay with SF-539 CNS is greater than 25 µM; with U251 CNS it was 14.9 µM; with NCI-H23 lung, greater than 25 µM; in the assay on A549 NSCLC, greater than 23.2 µM; with CAKI-1 renal, greater than 14.1 µM; in the assay on HCT-116 colon it was greater than 18 µM. The GI50 with SF-268 CNS was greater than 25 µM; in the assay on SK-MEL-5 melanoma, 21.5 µM; in the assay on M14 melanoma, greater than 25 µM; in the assay with HOP-62 NSCLC, greater than 25 µM. Besides, the TGI with SF-539 CNS, in the assay on U251 CNS, in the assay with NCI-H23 lung, in the assay on A549 NSCLC, in the assay with CAKI-1 renal and in the assay on HCT-116 colon was greater than 25 µM in each case. The TGI with SF-268 CNS, in the assay on SK-MEL-5 melanoma, in the assay with M14 melanoma and in the assay on HOP-62 NSCLC was greater than 25 µM in each case.
For the compound `CCOC(=O)c1nc2sc(Cl)cn2c1/C=N/N=C(N)N`, the GI50 with SF-539 CNS is 42.7 µM; in the assay on U251 CNS it was 23.6 µM; in the assay on NCI-H23 lung it was 20.4 µM; with A549 NSCLC, 26.9 µM; in the assay with CAKI-1 renal, 27 µM; in the assay on HCT-116 colon it was 18 µM. The GI50 in the assay on SF-268 CNS was 32 µM; in the assay with SK-MEL-5 melanoma it was 1.72 µM; in the assay on M14 melanoma, 18.8 µM; with HOP-62 NSCLC, 19.1 µM. Further, the TGI was greater than 100 µM with SF-539 CNS; greater than 53.9 µM in the assay with U251 CNS; greater than 69.8 µM in the assay with NCI-H23 lung; greater than 58.3 µM with A549 NSCLC; greater than 76.9 µM in the assay on CAKI-1 renal; 40.8 µM with HCT-116 colon. The TGI in the assay on SF-268 CNS is greater than 100 µM; in the assay on SK-MEL-5 melanoma it was greater than 23.1 µM; with M14 melanoma it was 45.6 µM; in the assay with HOP-62 NSCLC it was 40.4 µM.
Turning to `O=c1oc2cc(O)ccc2cc1-c1nc2ccccc2o1`, the TGI in the assay on SF-539 CNS is greater than 100 µM; with U251 CNS, 93.5 µM; in the assay with NCI-H23 lung it was greater than 100 µM; in the assay with A549 NSCLC, greater than 100 µM; in the assay on CAKI-1 renal it was greater than 100 µM; in the assay on HCT-116 colon it was greater than 100 µM. The TGI with SF-268 CNS is greater than 100 µM; in the assay on SK-MEL-5 melanoma, 40.8 µM; in the assay on M14 melanoma, greater than 100 µM; in the assay on HOP-62 NSCLC, greater than 100 µM.
